Experimental data as given in US7524861B2, “Process for the preparation of a hydrate of an anthranilic acid derivative” (priority 2002, dated 2009).

Experiments:
Assay type in all cases: cell-based
2780AD = test: Potentiation of toxicity of various cytotoxic agents, potentiation index; settings: Taxol, compound 10 nM
Procedure: (§1) (b) Cells were cultured for four days with a titration of doxorubicin (0.263 nM-[…]) in the presence of a fixed concentration of each compound. Proliferation was quantified as described by Skehen et al, loc cit. The IC50 (concentration required to reduce proliferation to 50% of the untreated controls) for doxorubicin alone and with each compound were derived and used to calculate the potentiation index (PI):
(§2) The potentiation indices of a selection of compounds using a variety of cell lines and a variety of cytotoxics other than doxorubicin were measured following the protocol described above for doxorubicin, and the results are shown in Table D.

H69/LX4 = test: as above; settings: for Potentiaton Index at RMA Concentration 10 nM: compound 10 nM; for Potentiaton Index at RMA Concentration 30 nM: compound 30 nM
Procedure: as §1, §2

AR 1.0 cells = test: Potentiation of doxorubicin toxicity: proliferation assay, compound titrated against fixed doxorubicin (sulphorhodamine B); settings: Mus musculus, 96 h; with fixed doxorubicin (0.34 mm); four day incubation; read-out: Toxicity with Cytotoxic Agent (IC50 mM)
Procedure: The EMT6 mouse mammary carcinoma cell line and the MDR resistant subline AR 1.0 were cultured in RPMI 1640 medium containing 10% foetal calf serum and 2 mM glutamine at 37° C. in 5% CO2. Cells were passaged between 1 in 200 and 1 in 2000 in the case of the parental cell line and between 1 in 20 and 1 in 200 in the case of the MDR resistant subline, after trypsinisation (0.25% trypsin, 0.2 gl^−1, EDTA).
(a) Selected compounds of formula (I) were examined for their ability to potentiate the toxicity of doxorubicin in AR 1.0 cells. In initial proliferation assays compounds were titrated against a fixed concentration of doxorubicin ([…]) which alone is non-toxic to AR 1.0 cells. After a four day incubation with doxorubicin proliferation was measured using the colorimetric sulphorhodamine B assay (Skehan et al; J Natl. Cancer Inst. 82 pp 1107-1112 (1990)).

| Compound | IC50 (AR 1.0 cells) | other results |
| --- | --- | --- |
| COc1cc2c(cc1OC)CN(CCc1ccc(NC(=O)c3sccc3NC(=O)c3cnc4ccccc4c3)cc1)CC2 [Compound 3, Quinoline-3-carboxylic acid (2-{4-[2-(6,7-dimethoxy-3,4-dihydro-1H-isoquinolin-2-yl)-ethyl]-phenylcarbamoyl}-thiophen-3-yl)-amide] |  | Potentiaton Index at RMA Concentration 10 nM (2780AD): 18; Potentiaton Index at RMA Concentration 10 nM (H69/LX4; Vincristine): 2; Potentiaton Index at RMA Concentration 30 nM (H69/LX4; Vincristine): 79 |
| COc1cc2c(cc1OC)CN(CCc1ccc(NC(=O)c3c(C)csc3NC(=O)c3cnc4ccccc4c3)cc1)CC2 [Compound 6, Quinoline-3-carboxylic acid (3-{4-[2-(6,7-dimethoxy-3,4-dihydro-1H-isoquinolin-2-yl)-ethyl]-phenylcarbamoyl}-4-methyl-thiophen-2-yl)-amide] |  | Potentiaton Index at RMA Concentration 10 nM (H69/LX4; Taxol): 1; Potentiaton Index at RMA Concentration 30 nM (H69/LX4; Taxol): 3; Potentiaton Index at RMA Concentration 50 nM (H69/LX4; Taxol, compound 50 nM): 9 |
| COc1ccc(CN(C)CCc2ccc(NC(=O)c3ccccc3NC(=O)c3cnc4ccccc4c3)cc2)cc1OC [Compound 7, Quinoline-3-carboxylic acid [2-(4-{2-[(3,4-dimethoxy-benzyl)-methyl-amino]-ethyl}-phenylcarbamoyl)-phenyl]-amide] |  | Potentiaton Index at RMA Concentration 10 nM (H69/LX4; Taxol): 2.2 |
| COc1cc2c(cc1OC)CN(CCNC(=O)c1ccccc1NC(=O)c1nccc3ccccc13)CC2 [Compound 27, Isoquinoline-1-carboxylic acid {2-[2-(6,7-dimethoxy-3,4-dihydro-1H-isoquinolin-2-yl)-ethylcarbamoyl]-phenyl}-amide] | 1000 nM |  |
| COc1cc2c(cc1OC)CN(CCNC(=O)c1ccccc1NC(=O)c1ccc3ccccc3n1)CC2 [Compound 28, Quinoline-2-carboxylic acid {2-[2-(6,7-dimethoxy-3,4-dihydro-1H-isoquinolin-2-yl)-ethylcarbamoyl]-phenyl}-amide] | 550 nM |  |
| COc1cc2c(cc1OC)CN(CCNC(=O)c1ccccc1NC(=O)c1cc3ccccc3cn1)CC2 [Compound 29, Isoquinoline-3-carboxylic acid {2-[2-(6,7-dimethoxy-3,4-dihydro-1H-isoquinolin-2-yl)-ethylcarbamoyl]-phenyl}-amide] | 300 nM |  |
| COc1cc2c(cc1OC)CN(CCc1ccc(NC(=O)c3cc(F)ccc3NC(=O)c3cnc4ccccc4c3)cc1)CC2 [Compound 33, Quinoline-3-carboxylic acid (2-{4-[2-(6,7-dimethoxy-3,4-dihydro-1H-isoquinolin-2-yl)-ethyl]-phenylcarbamoyl}-4-fluoro-phenyl)-amide] | 5 nM |  |
| COc1cc2c(cc1OC)CN(CCc1ccc(NC(=O)c3cc(OC)c(OC)cc3NC(=O)c3cnc4ccccc4c3)cc1)CC2 [Compound 34, Quinoline-3-carboxylic acid (2-{4-[2-(6,7-dimethoxy-3,4-dihydro-1H-isoquinolin-2-yl)-ethyl]-phenylcarbamoyl}-4,5-dimethoxy-phenyl)-amide] | 1.8 nM |  |
| COc1cc2c(cc1OC)CN(CCc1ccc(NC(=O)c3cc4c(cc3NC(=O)c3cnc5ccccc5c3)OCO4)cc1)CC2 [Compound 35, Quinoline-3-carboxylic acid (6-{4-[2-(6,7-dimethoxy-3,4-dihydro-1H-isoquinolin-2-yl)-ethyl]-phenylcarbamoyl}-benzo[1,3]dioxol-5-yl)-amide] | 1.4 nM |  |
| COc1cc2c(cc1OC)CN(CCc1ccc(NC(=O)c3ccc([N+](=O)[O-])cc3NC(=O)c3cnc4ccccc4c3)cc1)CC2 [Compound 36, Quinoline-3-carboxylic acid (2-{4-[2-(6,7-dimethoxy-3,4-dihydro-1H-isoquinolin-2-yl)-ethyl]-phenylcarbamoyl}-5-nitro-phenyl)-amide] | 3.8 nM |  |
| COc1cc2c(cc1OC)CN(CCc1ccc(NC(=O)c3cc(C)ccc3NC(=O)c3cnc4ccccc4c3)cc1)CC2 [Compound 37, Quinoline-3-carboxylic acid (2-{4-[2-(6,7-dimethoxy-3,4-dihydro-1H-isoquinolin-2-yl)-ethyl]-phenylcarbamoyl}-4-methyl-phenyl)-amide] | 15 nM |  |
| COc1cc2c(cc1OC)CN(CCc1ccc(NC(=O)c3ccc(C)cc3NC(=O)c3cnc4ccccc4c3)cc1)CC2 [Compound 38, Quinoline-3-carboxylic acid (2-{4-[2-(6,7-dimethoxy-3,4-dihydro-1H-isoquinolin-2-yl)-ethyl]-phenylcarbamoyl}-5-methyl-phenyl)-amide] | 5 nM |  |
| COc1cc2c(cc1OC)CN(CCc1ccc(NC(=O)c3cc(Cl)ccc3NC(=O)c3cnc4ccccc4c3)cc1)CC2 [Compound 39, Quinoline-3-carboxylic acid (2-{4-[2-(6,7-dimethoxy-3,4-dihydro-1H-isoquinolin-2-yl)-ethyl]-phenylcarbamoyl}-4-chloro-phenyl)-amide] | 5 nM |  |
| COc1cc2c(cc1OC)CN(CCc1ccc(NC(=O)c3ccc(Cl)cc3NC(=O)c3cnc4ccccc4c3)cc1)CC2 [Compound 40, Quinoline-3-carboxylic acid (2-{4-[2-(6,7-dimethoxy-3,4-dihydro-1H-isoquinolin-2-yl)-ethyl]-phenylcarbamoyl}-5-chloro-phenyl)-amide] | 40 nM |  |
| COc1cc2c(cc1OC)CN(CCc1ccc(NC(=O)c3ccc(N)cc3NC(=O)c3cnc4ccccc4c3)cc1)CC2 [Compound 41, Quinoline-3-carboxylic acid (2-{4-[2-(6,7-dimethoxy-3,4-dihydro-1H-isoquinolin-2-yl)-ethyl]-phenylcarbamoyl}-5-amino-phenyl)-amide] | 4400 nM |  |
| COc1cc2c(cc1OC)CN(CCc1ccc(NC(=O)c3ccccc3NC(=O)c3ccc4ccccc4n3)cc1)CC2 [Compound 42, Quinoline-2-carboxylic acid (2-{4-[2-(6,7-dimethoxy-3,4-dihydro-1H-isoquinolin-2-yl)-ethyl]-phenylcarbamoyl}-phenyl)-amide] | 70 nM |  |
| COc1cc2c(cc1OC)CN(CCc1ccc(NC(=O)c3ccccc3NC(=O)c3cnc4c(c3)CCCC4)cc1)CC2 [Compound 43, 5,6,7,8-Tetrahydroquinoline-3-carboxylic acid (2-{4-[2-(6,7-dimethoxy-3,4-dihydro-1H-isoquinolin-2-yl)-ethyl]-phenylcarbamoyl}-phenyl)-amide] | 50 nM |  |
| O=C(Nc1ccccc1C(=O)Nc1ccc(CCN2CCc3ccccc3C2)cc1)c1cnc2ccccc2c1 [Compound 44, Quinoline-3-carboxylic acid (2-{4-[2-(3,4-dihydro-1H-isoquinolin-2-yl)-ethyl]-phenylcarbamoyl}-phenyl)-amide] | 0.35 nM |  |
| COc1cc2c(cc1OC)CN(Cc1ccc(NC(=O)c3ccccc3NC(=O)c3cnc4ccccc4c3)cc1)CC2 [Compound 45, Quinoline-3-carboxylic acid {2-[4-(6,7-dimethoxy-3,4-dihydro-1H-isoquinolin-2-ylmethyl)-phenylcarbamoyl]-phenyl}-amide] | 22 nM |  |
